Results: publication PMC10924921, “Mi-2β promotes immune evasion in melanoma by activating EZH2 methylation” (Nature Communications, 2024)

What was measured:
Test in all cases: biochemical
Parameters in all cases: KINOMEscan active-site competition binding panel (468 kinase assays), per cent of control at 1000 nM
Conditions in all cases: KINOMEscan per cent of control (binding competition); read-out: Percent Control
[1] = biological target: EGFR(G719S) (Homo sapiens, UniProt P00533, G719S)
Description: (§1) Figure S7 / Percent Control

[2] = biological target: WNK4 (Homo sapiens, UniProt Q96J92)
Description: as §1

[3] = biological target: CSNK2A2 (Homo sapiens, UniProt P19784)
Description: as §1

[4] = biological target: EPHA4 (Homo sapiens, UniProt P54764)
Description: as §1

[5] = biological target: EGFR(S752-I759del) (Homo sapiens, UniProt P00533, DEL752-759)
Description: as §1

[6] = biological target: RIPK2 (Homo sapiens, UniProt O43353)
Description: as §1

[7] = biological target: PRKCQ (Homo sapiens, UniProt Q04759)
Description: as §1

[8] = biological target: SGK2 (Homo sapiens, UniProt Q9HBY8)
Description: as §1

[9] = biological target: T1, RPS6KA5(Kin.Dom.1-N-terminal) (Homo sapiens, UniProt O75582)
T1 construct: Kin.Dom.1-N-terminal
Description: as §1

[10] = biological target: T2, MRCKB (Homo sapiens, UniProt Q9Y5S2)
T2 construct: gene CDC42BPB
Description: as §1

[11] = biological target: T3, DCAMKL2 (Homo sapiens, UniProt Q8N568)
T3 construct: gene DCLK2
Description: as §1

[12] = biological target: PDGFRB (Homo sapiens, UniProt P09619)
Description: as §1

[13] = biological target: MET(M1250T) (Homo sapiens, UniProt P08581, M1250T)
Description: as §1

[14] = biological target: FGFR3(G697C) (Homo sapiens, UniProt P22607, G697C)
Description: as §1

[15] = biological target: T4, MEK3 (Homo sapiens, UniProt P46734)
T4 construct: gene MAP2K3
Description: as §1

[16] = biological target: FLT3(D835H) (Homo sapiens, UniProt P36888, D835H)
Description: as §1

[17] = biological target: DYRK1A (Homo sapiens, UniProt Q13627)
Description: as §1

[18] = biological target: FGFR2 (Homo sapiens, UniProt P21802)
Description: as §1

[19] = biological target: FLT3(D835Y) (Homo sapiens, UniProt P36888, D835Y)
Description: as §1

[20] = biological target: MAP4K2 (Homo sapiens, UniProt Q12851)
Description: as §1

[21] = biological target: DAPK2 (Homo sapiens, UniProt Q9UIK4)
Description: as §1

[22] = biological target: TIE1 (Homo sapiens, UniProt P35590)
Description: as §1

[23] = biological target: LCK (Homo sapiens, UniProt P06239)
Description: as §1

[24] = biological target: SLK (Homo sapiens, UniProt Q9H2G2)
Description: as §1

T2 sequence (Q9Y5S2 whole entry): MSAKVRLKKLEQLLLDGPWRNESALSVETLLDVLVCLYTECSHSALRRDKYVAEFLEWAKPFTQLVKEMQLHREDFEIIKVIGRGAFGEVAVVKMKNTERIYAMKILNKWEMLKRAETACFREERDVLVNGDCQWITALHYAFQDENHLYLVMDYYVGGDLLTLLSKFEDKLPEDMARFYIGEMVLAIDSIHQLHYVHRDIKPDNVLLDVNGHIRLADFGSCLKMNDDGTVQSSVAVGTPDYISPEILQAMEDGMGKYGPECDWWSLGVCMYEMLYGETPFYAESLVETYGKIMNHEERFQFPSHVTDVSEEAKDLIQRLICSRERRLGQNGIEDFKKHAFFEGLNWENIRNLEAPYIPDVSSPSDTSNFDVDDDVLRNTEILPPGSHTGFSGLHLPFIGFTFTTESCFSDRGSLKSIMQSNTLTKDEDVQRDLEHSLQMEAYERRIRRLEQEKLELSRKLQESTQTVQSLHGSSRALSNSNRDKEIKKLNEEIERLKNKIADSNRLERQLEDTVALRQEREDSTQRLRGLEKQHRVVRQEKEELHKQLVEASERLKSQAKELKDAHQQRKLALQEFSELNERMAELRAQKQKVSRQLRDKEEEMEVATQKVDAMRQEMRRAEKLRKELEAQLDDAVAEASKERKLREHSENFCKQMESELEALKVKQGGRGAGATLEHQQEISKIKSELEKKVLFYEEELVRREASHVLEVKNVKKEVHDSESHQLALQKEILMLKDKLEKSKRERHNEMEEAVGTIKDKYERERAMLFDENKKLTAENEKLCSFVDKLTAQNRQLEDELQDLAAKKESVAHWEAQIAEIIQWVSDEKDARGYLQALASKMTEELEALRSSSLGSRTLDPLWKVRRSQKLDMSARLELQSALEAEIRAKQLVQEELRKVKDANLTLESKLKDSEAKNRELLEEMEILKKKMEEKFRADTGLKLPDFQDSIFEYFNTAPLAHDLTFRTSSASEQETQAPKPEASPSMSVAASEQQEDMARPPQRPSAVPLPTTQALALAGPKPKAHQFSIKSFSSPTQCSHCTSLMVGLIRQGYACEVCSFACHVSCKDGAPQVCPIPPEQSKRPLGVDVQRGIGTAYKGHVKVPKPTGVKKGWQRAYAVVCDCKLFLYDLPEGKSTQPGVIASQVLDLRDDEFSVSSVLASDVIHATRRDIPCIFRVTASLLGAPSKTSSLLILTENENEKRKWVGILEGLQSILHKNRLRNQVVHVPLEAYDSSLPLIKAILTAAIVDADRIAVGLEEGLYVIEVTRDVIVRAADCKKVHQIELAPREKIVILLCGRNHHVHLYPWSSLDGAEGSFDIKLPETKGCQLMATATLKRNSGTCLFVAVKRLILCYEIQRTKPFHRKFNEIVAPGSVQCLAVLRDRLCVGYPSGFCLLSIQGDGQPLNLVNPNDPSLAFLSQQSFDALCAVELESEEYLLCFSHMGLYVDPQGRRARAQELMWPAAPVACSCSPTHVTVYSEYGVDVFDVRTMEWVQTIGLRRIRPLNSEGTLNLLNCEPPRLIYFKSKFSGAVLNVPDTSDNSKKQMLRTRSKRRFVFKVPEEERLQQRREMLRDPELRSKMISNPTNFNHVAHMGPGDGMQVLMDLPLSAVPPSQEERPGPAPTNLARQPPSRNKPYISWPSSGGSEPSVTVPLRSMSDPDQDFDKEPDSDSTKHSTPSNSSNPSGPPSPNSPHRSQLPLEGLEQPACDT
MET(M1250T), sequence (P08581 whole entry M1250T): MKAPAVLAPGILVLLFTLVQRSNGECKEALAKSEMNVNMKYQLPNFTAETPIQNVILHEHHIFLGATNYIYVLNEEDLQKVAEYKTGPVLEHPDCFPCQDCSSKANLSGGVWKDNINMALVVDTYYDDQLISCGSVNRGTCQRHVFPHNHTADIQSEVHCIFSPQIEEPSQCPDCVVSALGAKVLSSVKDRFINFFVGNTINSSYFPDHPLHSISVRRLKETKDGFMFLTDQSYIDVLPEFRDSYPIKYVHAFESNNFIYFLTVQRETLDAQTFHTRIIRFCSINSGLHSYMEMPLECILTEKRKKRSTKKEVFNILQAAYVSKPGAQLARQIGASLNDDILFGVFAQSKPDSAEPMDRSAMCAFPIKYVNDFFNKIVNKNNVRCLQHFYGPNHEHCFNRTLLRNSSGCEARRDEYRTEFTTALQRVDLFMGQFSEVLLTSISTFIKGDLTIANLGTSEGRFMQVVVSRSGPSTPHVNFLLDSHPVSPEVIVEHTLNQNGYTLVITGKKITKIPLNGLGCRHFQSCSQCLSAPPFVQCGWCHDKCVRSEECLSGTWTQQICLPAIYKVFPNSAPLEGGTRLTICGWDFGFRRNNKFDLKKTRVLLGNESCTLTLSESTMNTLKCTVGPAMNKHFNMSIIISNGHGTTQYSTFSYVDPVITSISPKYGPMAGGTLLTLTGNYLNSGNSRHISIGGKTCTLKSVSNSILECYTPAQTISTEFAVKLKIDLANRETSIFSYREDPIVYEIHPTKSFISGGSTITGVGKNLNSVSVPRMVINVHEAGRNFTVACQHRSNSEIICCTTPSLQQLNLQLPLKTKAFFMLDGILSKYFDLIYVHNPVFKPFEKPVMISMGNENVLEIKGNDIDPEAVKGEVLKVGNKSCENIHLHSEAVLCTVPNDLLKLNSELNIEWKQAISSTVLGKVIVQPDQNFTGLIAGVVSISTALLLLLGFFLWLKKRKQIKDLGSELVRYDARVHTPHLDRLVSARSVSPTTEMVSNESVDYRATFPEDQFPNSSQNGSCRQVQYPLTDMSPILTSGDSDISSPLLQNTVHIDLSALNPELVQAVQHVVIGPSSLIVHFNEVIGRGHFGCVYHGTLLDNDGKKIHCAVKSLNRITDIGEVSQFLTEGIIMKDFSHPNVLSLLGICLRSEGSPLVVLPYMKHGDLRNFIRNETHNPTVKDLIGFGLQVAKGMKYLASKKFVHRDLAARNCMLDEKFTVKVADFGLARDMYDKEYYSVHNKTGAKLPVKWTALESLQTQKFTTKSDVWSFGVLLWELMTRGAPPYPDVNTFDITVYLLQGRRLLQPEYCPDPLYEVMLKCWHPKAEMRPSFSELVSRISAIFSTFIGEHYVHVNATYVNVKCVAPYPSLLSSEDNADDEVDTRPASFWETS
MAP4K2, sequence (Q12851 whole entry): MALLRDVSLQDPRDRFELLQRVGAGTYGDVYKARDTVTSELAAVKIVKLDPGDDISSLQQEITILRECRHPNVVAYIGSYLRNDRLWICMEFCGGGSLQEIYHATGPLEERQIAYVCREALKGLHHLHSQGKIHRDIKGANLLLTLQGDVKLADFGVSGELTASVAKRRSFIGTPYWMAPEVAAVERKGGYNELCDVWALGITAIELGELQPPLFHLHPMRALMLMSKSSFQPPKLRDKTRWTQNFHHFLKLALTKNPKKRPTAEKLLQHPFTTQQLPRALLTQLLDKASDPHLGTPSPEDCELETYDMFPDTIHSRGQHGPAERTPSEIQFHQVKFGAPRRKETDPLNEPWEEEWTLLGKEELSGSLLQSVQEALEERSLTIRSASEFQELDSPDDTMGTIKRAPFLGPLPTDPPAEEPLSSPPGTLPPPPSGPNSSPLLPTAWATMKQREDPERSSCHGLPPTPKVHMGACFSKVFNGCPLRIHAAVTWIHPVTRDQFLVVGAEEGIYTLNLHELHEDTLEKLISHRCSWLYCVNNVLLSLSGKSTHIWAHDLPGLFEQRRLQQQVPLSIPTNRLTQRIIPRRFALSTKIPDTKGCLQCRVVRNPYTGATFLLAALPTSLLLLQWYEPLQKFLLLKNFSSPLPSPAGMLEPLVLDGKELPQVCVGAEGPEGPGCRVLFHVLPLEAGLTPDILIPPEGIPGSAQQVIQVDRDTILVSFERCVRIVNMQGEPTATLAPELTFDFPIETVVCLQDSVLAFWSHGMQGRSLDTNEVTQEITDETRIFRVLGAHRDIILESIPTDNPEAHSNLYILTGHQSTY
CSNK2A2, sequence (P19784 whole entry): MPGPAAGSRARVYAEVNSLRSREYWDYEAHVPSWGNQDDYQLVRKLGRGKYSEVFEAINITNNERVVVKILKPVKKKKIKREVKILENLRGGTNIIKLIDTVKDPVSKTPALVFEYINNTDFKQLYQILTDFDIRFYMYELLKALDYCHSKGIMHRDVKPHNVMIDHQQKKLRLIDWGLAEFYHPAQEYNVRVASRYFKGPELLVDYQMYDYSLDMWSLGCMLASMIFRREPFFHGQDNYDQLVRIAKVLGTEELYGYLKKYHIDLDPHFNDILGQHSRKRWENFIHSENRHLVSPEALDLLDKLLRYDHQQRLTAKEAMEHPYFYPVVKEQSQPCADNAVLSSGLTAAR
LCK, sequence (P06239 whole entry): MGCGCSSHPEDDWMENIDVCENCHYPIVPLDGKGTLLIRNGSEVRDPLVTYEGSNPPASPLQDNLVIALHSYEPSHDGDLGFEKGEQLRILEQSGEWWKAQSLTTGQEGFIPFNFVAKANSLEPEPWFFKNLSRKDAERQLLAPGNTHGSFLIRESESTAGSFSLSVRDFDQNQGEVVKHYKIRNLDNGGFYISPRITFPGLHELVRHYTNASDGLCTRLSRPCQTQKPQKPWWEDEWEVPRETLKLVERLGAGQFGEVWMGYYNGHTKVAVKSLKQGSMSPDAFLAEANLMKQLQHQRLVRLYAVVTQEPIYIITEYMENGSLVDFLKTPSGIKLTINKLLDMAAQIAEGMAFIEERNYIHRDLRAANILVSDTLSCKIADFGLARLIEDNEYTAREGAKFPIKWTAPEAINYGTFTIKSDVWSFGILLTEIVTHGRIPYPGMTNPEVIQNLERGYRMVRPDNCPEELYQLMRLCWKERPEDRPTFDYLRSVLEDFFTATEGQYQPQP

Cn1c(=O)[nH]c2ccc(-c3cccc(C(=O)NC4CCn5ccnc5C4)c3)cc21 (stereo not drawn) [Z36-MP5]
remaining binding at 1 µM [1]: 85% | remaining binding at 1 µM [2]: 81% | remaining binding at 1 µM [3]: 63% | remaining binding at 1 µM [4]: 58% | remaining binding at 1 µM [5]: 55% | remaining binding at 1 µM [6]: 94% | remaining binding at 1 µM [7]: 86% | remaining binding at 1 µM [8]: 64% | remaining binding at 1 µM [9]: 75% | remaining binding at 1 µM [10]: 92% | remaining binding at 1 µM [11]: 90% | remaining binding at 1 µM [12]: 93% | remaining binding at 1 µM [13]: 88% | remaining binding at 1 µM [14]: 49% | remaining binding at 1 µM [15]: 66% | remaining binding at 1 µM [16]: 81% | remaining binding at 1 µM [17]: 60% | remaining binding at 1 µM [18]: 37% | remaining binding at 1 µM [19]: 88% | remaining binding at 1 µM [20]: 81% | remaining binding at 1 µM [21]: 93% | remaining binding at 1 µM [22]: 97% | remaining binding at 1 µM [23]: 49% | remaining binding at 1 µM [24]: 100%
